Reference: patent US12324805B2, “Cancer treatment” (LDN Pharma Limited, priority 2017, dated 2025)
Entries after “also recorded” stand apart in the source; their conditions may differ.

Experiments:
[1] = test system: CB2; test: Western blot of CB2 levels in MCF7 cells after drug treatment; assay type: cell-based; conditions: two days; for levels of CB2 relative to controls: LDN 10 nM, 6BN 1 μM or 10 μM, Western blot densitometry normalised to GAPDH, vs no-drug controls
Description: Levels of Bcl2-associated death promoter (BAD), p21 protein, the opioid receptors kappa 1 (OPRK1) and mu 1 (OPRM1), and the cannabinoid receptors CBR1 (CB1) and CBR2 (CB2) are visualised by Western blot (left) against GAPDH as a loading control, and quantified via density analysis relative to GAPDH (right).
One illustrative and non-limiting experiment was carried out on cultures of MCF7 cells. In brief, either LDN at 10 nM or 6BN at 1 μM or 10 μM was administered in vitro to a culture for two days, after which the expression levels of BAD, p21, opioid receptors kappa and mu, CB1, CB2, and GAPDH (as a loading control) were analysed via Western blot and subsequent quantification via density measurement of the bands.
In full, MCF7 cells were seeded into 6-well plates at a density of 1×10^5/well and left to adhere over-night. Naltrexone (10 nM) or 6-β-naltrexol (1 μM or 10 μM) were added to the cells before harvesting cells for western blot analysis. Primary probing was performed with specific antibodies generated against BAD, p21, OPRK1, […], CBR-1 and CBR-2. […] Anti-GAPDH was used as a loading control. All antibodies were used at a dilution of 1:1000, followed by the appropriate HRP conjugated secondary antibodies also at a dilution of 1:1000. Bands were visualised by the SuperSignal chemiluminescent detection system, and densitometry of band intensity was determined using Adobe Photoshop CS3, v10.0, and normalised to the loading control.

[2] = test system: MCF7 cells; test: Two-stage sequential treatment of MCF7 cells, cell number and viability (trypan blue); assay type: cell-based; conditions: LDN (10 nM) or 6BN (10 μM) for 48 h, then cannabinoid (cannabidiol 10 μM) for 48 h, compared with other sequences
Description: Each treatment lasted four days and consisted of two days of treatment with the first agent (UN=control, LDN=Low Dose Naltrexone at 10 nM CBD=Cannabidiol, 6BN=6-β-naltrexol) before the second-named agent was introduced for a further two days.
Another illustrative and non-limiting experiment was carried out on cultures of MCF7 cells. In brief, the cultures were treated with LDN or 6BN for two days, after which a cannabinoid was administered for a further two days. Cell number and viability were assessed on day four. The sequence of the administration for each therapeutic agent was reversed and the experiment repeated.
In full, MCF7 cells were seeded into 6-well plates at a density of 1.5×10^4/well and left to adhere. Cells were then cultured with naltrexone (10 nM), 6-β-naltrexol (10 μM) or cannabidiol (10 μM). Drug-containing media was removed after 48 h, and cells were rinsed gently with drug-free medium. Fresh culture medium was then added to the cells supplemented with either naltrexone (10 nM), 6-β-naltrexol (10 μM) or cannabidiol (10 μM), as indicated in the graph. Cell number and viability were assessed a further 48 h later, with percentages of live and dead cells being discriminated by trypan blue dye exclusion. Data were then consolidated to compare the effect of sequence on overall effect.

Oc1ccc2c3c1OC1C(O)CC[C@@]4(O)[C@@H](C2)N(CC2CC2)CC[C@]314 (some centres unmarked) [6BN, N-cyclopropylmethyl-7,8-dihydro-14-hydroxynorisomorphine]
rise in CB2 compared among the three treatments ([1]; 10 μM 6BN compared with 1 μM 6BN and 10 nM LDN): highest
levels of CB2 relative to controls [1]: significant increase
inhibition of cancer cell proliferation, effect of schedule [2]: most effective; also recorded: greater effect

O=C1CC[C@@]2(O)[C@H]3Cc4ccc(O)c5c4[C@@]2(CCN3CC2CC2)[C@H]1O5 [LDN, 17-cyclopropylmethyl-4.5α-epoxy-3,14-dihydroxymorphinan-6-one]
levels of CB2 relative to controls [1]: significant increase; also recorded: increased significantly
inhibition of cancer cell proliferation, effect of schedule [2]: most effective; also recorded: more effectively; also recorded: greater effect
